Measured values published in article PMC9750872, “Ras-mutant cancers are sensitive to small molecule inhibition of V-type ATPases in mice” (Nature biotechnology, 2022).

What was measured:
MEFs BRAFV600E = assay: Cell proliferation of Ras-less MEFs expressing human KRAS/BRAF; settings: Mus musculus
Description: (§3) Cell proliferation assays of stable cell lines treated with V-ATPase inhibitors 249C and BafA1, HCQ analog (DC661), KRASG12C inhibitor (AMG510) and autophagy inducer (CMA). For each bar, n = 3. Representative of 3 biological replicates (mean ± SD). Two-sided t-test with no adjustments for multiple comparisons.
(§4) Logarithmically growing cells were plated in antibiotic-free medium supplemented with 2% fetal bovine serum at a density of 5,000 cells per well. The next day, cells were treated in triplicates with increasing doses of in-house small molecule inhibitor drugs and a DMSO vehicle control for 3 days and subsequently assessed for cell viability by measurement of ATP with CellTiter-Glo Luminescent Cell Viability Assay (Promega). Signal intensity was read on a Glomax™ 96 Microplate Luminometer (Promega) with GLOMAX software (version 1.9.3) and percent cell survival was calculated based on the reading of vehicle control cells set as 100% using Excel (2012) and GraphPad Prism (version 6)Each compound was tested a minimum of 2 times with n = 3. All cell proliferation assays (cancer cell lines or MEFs) were done in a similar way.

MEFs KRAS G12V = assay: as above; settings: Mus musculus
Description: as §3, §4

human primary cells = assay: BioMAP Safety and Toxicology screening profile; format: cell-based; settings: over 100 biomarker readouts
Description: The BioMAP Toxicity Screening Profile was performed as described previously.

MEFs KRAS G12S = assay: Cell proliferation of Ras-less MEFs expressing human KRAS/BRAF; settings: Mus musculus
Description: as §4

[1] = system: NSCLC A549 (KRASG12S) xenografts; assay: A549 lung cancer xenograft; format: in vivo; settings: 10 mg/kg twice daily i.p.
Description: Finally, to test whether 249C could inhibit autophagy and attenuate the growth of mutant KRAS-dependent cancers as a single agent in vivo, we evaluated 249C in a mouse xenograft model of lung cancer (NSCLC, A549). Briefly, we injected mutant KRAS A549 (G12S) cells into the flanks of athymic mice to establish xenografts, randomly assigned mice to vehicle control (n = 7) or 249C-recipient groups (n = 7, 10 mg/kg) with twice daily i.p. injections, and recorded tumor volume and body weight over time. […] We subsequently sacrificed all mice and excised their tumors for further investigation.
5 × 10^6 A549 cells were subcutaneously injected into the lower left flank of 6–8-week old athymic nude female mice (Charles River strain # 088, homozygous NU/NU). To assess establishment of tumors, mice were examined 5 days post-inoculation and were randomly segregated into two treatment groups [vehicle control, 10 mg/kg 249C IP, n = 7 per group] and were treated twice daily with the drug in NPM or vehicle control (5% weight aqueous solution of carboxymethyl cellulose). Tumor volumes were calculated using the formula (L × W × H)/2 with recorded caliper measurements. Survival curves and statistical analyses were performed using Excel. Animals were maintained on a standard chow diet; 12:12 dark/light cycle and in group housing in hepa-filtered cages. All animal procedures were performed under IACUC approved protocols and guidelines. Animals from both groups were weighed every 3 days. Plasma concentration was measured from blood collected using standard and established protocols.

hERG = hERG (Homo sapiens, UniProt Q12809); assay: hERG fluorescence polarization assay; settings: human
hERG, sequence (Q12809 whole entry): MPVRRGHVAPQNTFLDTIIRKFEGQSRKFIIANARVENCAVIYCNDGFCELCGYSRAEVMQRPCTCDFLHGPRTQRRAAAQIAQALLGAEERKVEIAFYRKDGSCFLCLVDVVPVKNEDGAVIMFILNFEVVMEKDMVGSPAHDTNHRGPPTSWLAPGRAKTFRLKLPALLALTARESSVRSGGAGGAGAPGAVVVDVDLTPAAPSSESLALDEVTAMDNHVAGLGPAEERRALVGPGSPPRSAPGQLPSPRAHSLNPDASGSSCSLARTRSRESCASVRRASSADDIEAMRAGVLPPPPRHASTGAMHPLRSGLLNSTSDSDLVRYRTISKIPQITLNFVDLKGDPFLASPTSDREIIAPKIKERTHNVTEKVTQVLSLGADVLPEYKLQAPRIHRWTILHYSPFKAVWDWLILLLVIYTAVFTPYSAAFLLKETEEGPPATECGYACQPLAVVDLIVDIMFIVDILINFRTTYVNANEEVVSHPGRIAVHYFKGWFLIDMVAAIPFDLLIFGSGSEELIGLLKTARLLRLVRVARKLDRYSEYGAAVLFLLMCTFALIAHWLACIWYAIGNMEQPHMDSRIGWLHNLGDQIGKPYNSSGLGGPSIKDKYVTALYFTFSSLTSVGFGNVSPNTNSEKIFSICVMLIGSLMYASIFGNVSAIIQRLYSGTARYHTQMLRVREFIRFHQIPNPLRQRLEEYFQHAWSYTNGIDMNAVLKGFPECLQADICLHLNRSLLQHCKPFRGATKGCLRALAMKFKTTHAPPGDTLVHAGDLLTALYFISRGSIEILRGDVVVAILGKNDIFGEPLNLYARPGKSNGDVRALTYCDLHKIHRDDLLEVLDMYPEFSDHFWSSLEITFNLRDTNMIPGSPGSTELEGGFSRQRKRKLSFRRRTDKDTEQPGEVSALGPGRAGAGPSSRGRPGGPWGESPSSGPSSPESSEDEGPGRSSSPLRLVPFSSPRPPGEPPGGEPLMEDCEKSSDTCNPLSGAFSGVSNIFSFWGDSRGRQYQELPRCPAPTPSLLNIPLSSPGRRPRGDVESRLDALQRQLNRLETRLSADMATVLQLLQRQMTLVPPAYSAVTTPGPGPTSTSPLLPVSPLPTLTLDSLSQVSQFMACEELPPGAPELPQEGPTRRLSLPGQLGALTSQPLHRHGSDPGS

MEFs bearing KRASG13D = assay: Macropinocytosis, TMR-dextran uptake; format: cell-based; settings: Mus musculus; 2 μM 249C 18 h, DMSO = 100%; read-out: inhibition of MP
Description: (§1) Macropinosome visualization was essentially done as previously described. Cells were plated in black, clear bottom CellCarrier-96 Ultra Microplates (PerkinElmer 6055302) and serum-starved for 24 h. The next day, they were treated with 2 μM 249C (1255) for 18 h followed by addition of 70 kDa TMR-Dextran (Invitrogen D1818) and Hoescht for 2 hours at 37 °C prior to 3 × cold PBS washes and fixation in 4% paraformaldehyde for 30 min. Following 3 × cold PBS washes, mounting medium (Vector Laboratories Inc.) was added and images were captured using an Operetta CLS™ fluorescent microscope for High-Content Analysis (PerkinElmer). Image analysis and quantification was performed with a spot segmentation algorithm using the Perkin Elmer Harmony® PhenoLOGIC™ 3.2 software. Briefly, the images were segmented and individual nuclei (DAPI stained) and cell bodies (by digital phase contrast imaging) were identified. The TMR signal was used for the spot segmentation analysis block. […] Data are presented as spots - number of objects per nucleus. For each cell line, 5 DMSO control and 5 249C-treated wells were imaged and a minimum of 3 images were captured per well. Data representing three independent experiments are presented.

MEFs bearing KRASG12V = assay: Macropinocytosis, TMR-dextran uptake; format: cell-based; settings: Mus musculus; 2 μM 249C 18 h, DMSO = 100%; read-out: inhibition of MP
Description: as §1

MEFs bearing BRAFV600E = assay: Macropinocytosis, TMR-dextran uptake; format: cell-based; settings: Mus musculus; 2 μM 249C 18 h, DMSO = 100%; read-out: inhibition of MP
Description: as §1

A549 (KRASG12S) = assay: Cell viability screen, CellTiter-Glo, 72 h; format: cell-based; settings: Homo sapiens, ATP content/viability
Description: (§2) Figure 1: Optimization of Potency and Drug Properties of Small Molecule Inhibitors of Ras- and Raf-mutant Cells using Viability Screens. (A) Cell viability screen of ~300 small molecules in A549 (KRASG12S), LOX IMVI (BRAFV600E), and MelJuso (HRASG13D and NRASQ61L). Cells were treated with vehicle DMSO or increasing concentrations of small molecules in triplicate for 72 h and ATP content/viability was measured using CellTiter-Glo Luminescent Cell Viability Assay. The results shown for all cell viability figures are representative of at least two independent experiments. […] (C) Evolution of the Structure Activity Relationship (SAR) and IC50s of the first (68) and last (249C | lead due to drug-like properties) compounds in the screen. (D) 249C sensitivity for a panel of 53 cancer cell lines (including lung, pancreatic, breast, ovarian, hematological/liver, prostate, colorectal cancers, glioma and melanoma). […] (F) Quantitative whole proteome analysis of the effects of small molecule treatment by mass spectrometry. A549 cells were treated with DMSO or 68 (30 μM), 226C (1μM) or 249C (1μM) for 48 h prior to analysis of proteomes with TMT labeling followed by quantification relative to the DMSO control. […]

LOX IMVI (BRAFV600E) = assay: Cell viability screen, CellTiter-Glo, 72 h; format: cell-based; settings: Homo sapiens, ATP content/viability
Description: as §2

MEFs KRAS Q61R = assay: Cell proliferation of Ras-less MEFs expressing human KRAS/BRAF; settings: Mus musculus
Description: as §4

CN1CCOC(CNC(=O)C2(C)C(c3ccc(Cl)o3)C(c3ccc(F)cc3F)=NN2c2ccc(F)cc2F)C1 (centres unmarked) [Compound 249C]
IC50 (MEFs BRAFV600E): 110 nM
IC50 (MEFs KRAS G12V): 150 nM
toxicity categories / adverse events in BioMAP safety profiling (human primary cells): no adverse events
IC50 (MEFs KRAS G12S): 230 nM
tumor volume vs vehicle ([1]; athymic mice): significantly lower
tumor mass vs vehicle ([1]; end point): lower
tissue weight of treated mice vs vehicle ([1]; mice bearing A549 xenografts): No significant difference in tissue weight
inhibition at 30 µM (hERG): 0%
inhibition at 2 µM (MEFs bearing KRASG13D): 94%
inhibition at 2 µM (MEFs bearing KRASG12V): 73%
inhibition at 2 µM (MEFs bearing BRAFV600E): 90%
IC50 (A549 (KRASG12S)): 73 nM
IC50 (LOX IMVI (BRAFV600E)): 60 nM
IC50 (MEFs KRAS Q61R): 550 nM
